Test results: ChEMBL document CHEMBL5303304, “EUbOPEN Chemogenomics Library - IncuCyte” (2023)

Tests used:
Type in all cases: toxicity, cell-based
HEK-293T = test: Incucyte cell viability with HEK293T; details: human, 10 µM, compound concentration 10 uM
Fibroblast = test: Incucyte cell viability with human fibroblast; details: 10 µM, compound concentration 10 uM
U2OS = test: Incucyte cell viability with U2OS; details: human, 10 µM, compound concentration 10 uM
Note: unitless GR value; below 1 slowed growth and below 0 cell loss.

Structure (SMILES)	Growth Rate (HEK-293T; 0 h, replicate number 1)	Growth Rate (Fibroblast; 0 h, replicate number 2)	Growth Rate (Fibroblast; 6 h, replicate number 1)	Growth Rate (Fibroblast; 12 h, replicate number 1)	Growth Rate (U2OS; 0 h, replicate number 2)	Growth Rate (U2OS; 6 h, replicate number 1)	Growth Rate (U2OS; 6 h, replicate number 2)	Growth Rate (U2OS; 18 h, replicate number 2)	Growth Rate (U2OS; 24 h, replicate number 2)	Growth Rate (HEK-293T; 0 h, replicate number 2)	Growth Rate (HEK-293T; 12 h, replicate number 2)	Growth Rate (HEK-293T; 24 h, replicate number 2)	Growth Rate (Fibroblast; 0 h, replicate number 1)	Growth Rate (Fibroblast; 12 h, replicate number 2)	Growth Rate (U2OS; 18 h, replicate number 1)	Growth Rate (U2OS; 24 h, replicate number 1)	Growth Rate (Fibroblast; 18 h, replicate number 1)	Growth Rate (U2OS; 12 h, replicate number 1)	Growth Rate (HEK-293T; 6 h, replicate number 2)	Growth Rate (U2OS; 12 h, replicate number 2)	further results
Cc1cccc(-c2nn(C(=S)Nc3ccccc3)cc2-c2ccnc3ccccc23)n1	0.78	-1	1	-1	-0.94	0.88	0.81	0.98	0.88	–	–	–	–	–	–	–	–	–	–	–	–
NC(=O)c1cc(-c2ccnc(NC3CCCCC3)c2)nc(N2CCNCC2)c1	-0.55	0.79	0.63	-1	–	–	–	0.9	0.72	-0.65	0.31	0.44	-0.81	0.39	0.84	0.61	–	–	–	–	Growth Rate (HEK-293T; 12 h, replicate number 1): 0.54; Growth Rate (HEK-293T; 18 h, replicate number 1): 0.8; Growth Rate (HEK-293T; 18 h, replicate number 2): 0.26; Growth Rate (Fibroblast; 6 h, replicate number 2): -0.77; Growth Rate (Fibroblast; 18 h, replicate number 2): 0.65; Growth Rate (Fibroblast; 24 h, replicate number 2): 0.36
Clc1cccc(-n2nnnc2NCc2ccccc2Oc2ccccn2)c1Cl	0.73	0.26	–	–	0.95	–	0.99	0.96	–	0.49	–	–	0.89	0.89	–	–	0.74	0.9	–	–	Growth Rate (Fibroblast; 6 h, replicate number 2): -0.47; Growth Rate (Fibroblast; 24 h, replicate number 1): 0; Growth Rate (U2OS; 0 h, replicate number 1): -0.04
CC(C)(O)C(=O)N1CCN(c2ccc(C(F)(F)F)c(C3=C(c4c[nH]c5ccccc45)C(=O)NC3=O)c2)CC1	0.94	-1	-0.74	-1	–	–	–	0.8	0.83	–	0.57	0.42	–	–	0.9	0.76	–	0.93	0.29	–	Growth Rate (HEK-293T; 6 h, replicate number 1): 0.81; Growth Rate (HEK-293T; 18 h, replicate number 1): 0.83; Growth Rate (HEK-293T; 18 h, replicate number 2): 0.49; Growth Rate (HEK-293T; 24 h, replicate number 1): 0.61; Growth Rate (Fibroblast; 18 h, replicate number 2): 0.73; Growth Rate (Fibroblast; 24 h, replicate number 2): 0.3; Growth Rate (U2OS; 0 h, replicate number 1): -0.61
O=C1NCCSc2c1sc1ccc(O)cc21	0.04	–	-0.69	-1	-0.99	–	–	0.31	0.18	-0.36	-0.26	0.12	–	–	0.33	0.37	–	0.56	-0.51	0.36	Growth Rate (HEK-293T; 6 h, replicate number 1): -0.48; Growth Rate (HEK-293T; 12 h, replicate number 1): -0.4; Growth Rate (HEK-293T; 18 h, replicate number 1): -0.14; Growth Rate (HEK-293T; 18 h, replicate number 2): -0.06; Growth Rate (HEK-293T; 24 h, replicate number 1): 0.15; Growth Rate (U2OS; 0 h, replicate number 1): 0
NC(=O)c1ccc2[nH]c(-c3ccc(Oc4ccc(Cl)cc4)cc3)nc2c1	0.58	-0.68	-0.26	-1	-0.59	-0.28	0.74	0.83	0.82	–	0.93	0.98	0.02	–	0.72	0.75	–	0.47	0.12	0.71	Growth Rate (HEK-293T; 6 h, replicate number 1): 0.6
CCn1c(-c2nonc2N)nc2c(C#CC(C)(C)O)ncc(OCC3CCCNC3)c21 (stereo not drawn)	0.09	–	–	–	–	–	0.47	0.84	0.9	0.47	-0.05	0.13	-0.85	0.5	–	0.96	-0.63	–	-0.49	0.86	Growth Rate (HEK-293T; 6 h, replicate number 1): -0.57; Growth Rate (HEK-293T; 12 h, replicate number 1): -0.65; Growth Rate (HEK-293T; 18 h, replicate number 1): -0.26; Growth Rate (HEK-293T; 18 h, replicate number 2): 0.15; Growth Rate (HEK-293T; 24 h, replicate number 1): -0.03; Growth Rate (Fibroblast; 6 h, replicate number 2): -0.99; Growth Rate (Fibroblast; 18 h, replicate number 2): 0.47; Growth Rate (Fibroblast; 24 h, replicate number 1): 0.21; Growth Rate (Fibroblast; 24 h, replicate number 2): 0.58
Cc1ccc(C)c(OCCCC(C)(C)C(=O)O[C@@H]2O[C@H](C(=O)O)[C@@H](O)[C@H](O)[C@H]2O)c1	0.57	–	0.96	-1	-0.96	0.4	0.89	–	–	–	0.64	0.91	0.21	0.42	0.89	0.9	-0.29	0.78	0.49	0.99	Growth Rate (HEK-293T; 18 h, replicate number 2): 0.87; Growth Rate (Fibroblast; 6 h, replicate number 2): -0.9; Growth Rate (Fibroblast; 24 h, replicate number 1): 0.68; Growth Rate (Fibroblast; 24 h, replicate number 2): 0.89; Growth Rate (U2OS; 0 h, replicate number 1): 0.28
COc1cc(OC)c(NC(=O)Nc2cc(C)on2)cc1Cl	0.72	-0.96	0.03	-1	–	–	0.98	0.82	–	0.7	–	–	–	–	0.96	–	–	–	–	–	–
O=C(NCc1cccc(O)c1)Nc1nc(-c2ccncc2)cs1	-0.16	-0.55	-1	–	-0.94	–	–	–	1	-0.82	–	–	–	–	–	0.88	–	–	–	–	–
COc1ccc(OC)c(-c2ccc(NC(=O)c3ccncc3F)cc2)c1	-0.77	–	–	–	-0.01	0.57	0.63	0.87	0.91	–	–	–	-0.06	0.93	0.74	0.87	-0.35	0.56	–	0.84	Growth Rate (Fibroblast; 6 h, replicate number 2): -0.75; Growth Rate (Fibroblast; 24 h, replicate number 2): 0.92; Growth Rate (U2OS; 0 h, replicate number 1): -0.54
COc1cc(N2CCN(C)CC2)ccc1Nc1nccc(-c2cn(C)c3cnccc23)n1	-0.65	0.04	-1	–	-0.71	–	–	–	–	-0.69	–	0.8	–	–	–	0.75	–	–	–	–	–
CCN1CCN(Cc2ccc(Nc3ncc(F)c(-c4cc(F)c5nc(C)n(C(C)C)c5c4)n3)nc2)CC1.CS(=O)(=O)O	-0.17	–	0.33	-1	–	–	–	0.98	1	0.21	0.38	0.76	0.5	0.98	–	–	–	–	0.64	0.97	Growth Rate (HEK-293T; 12 h, replicate number 1): 0.36; Growth Rate (HEK-293T; 18 h, replicate number 2): 0.6
CN1CCN(c2nc(N)c3ccccc3n2)CC1	0.4	–	0.45	-1	-0.89	0.43	0.36	–	0.83	0.8	–	–	–	0.67	0.76	0.77	0.78	0.81	0.91	0.53	–
NC1=NC(=O)/C(=C2\CCNC(=O)c3[nH]c4ccccc4c32)N1	0.81	–	–	-1	–	0.43	0.45	0.65	–	0.25	–	–	0.39	–	0.74	0.78	-0.07	0.63	–	0.7	–
C=CC(=O)N1CCC[C@@H](n2nc(C(=O)Nc3ccc(CC(=O)N(C)C)c(C)c3C)c3c(N)ncnc32)C1	-0.26	-1	-0.17	-1	-0.77	–	–	–	–	-0.68	–	–	0.74	–	–	–	–	–	–	–	Growth Rate (Fibroblast; 24 h, replicate number 1): 0.16
NC(=O)c1ccc(-c2nc(-c3ccc4c(c3)OCO4)c(-c3ccccn3)[nH]2)cc1.O	0.76	–	-0.01	–	-0.09	0.96	–	0.79	–	–	–	–	-0.21	–	0.95	0.94	-0.48	0.79	–	–	Growth Rate (Fibroblast; 6 h, replicate number 2): -0.54; Growth Rate (U2OS; 0 h, replicate number 1): -0.57
CC(Sc1nc2c(cnn2-c2cccc(Cl)c2)c(=O)[nH]1)C(N)=O (stereo not drawn)	1	-1	0.44	–	–	-0.28	0.38	0.68	0.85	0.66	–	–	–	–	0.85	0.84	0.53	0.5	–	0.69	–
